Results published in ChEMBL document CHEMBL1150262, “Ring size of somatostatin analogues (ODT-8) modulates receptor selectivity and binding affinity” (J Med Chem, 2008).

What was measured:
[1] = biological target: Somatostatin receptor type 2 (Homo sapiens, UniProt P30874); assay: Displacement of [125I]-[Leu8, DTrp22, Tyr25]SRIF-28 from human cloned sst2 receptor expressed in CCL39 cells; assay type: cell-based
[2] = biological target: Somatostatin receptor type 5 (Homo sapiens, UniProt P35346); assay: Displacement of [125I]-[Leu8, DTrp22, Tyr25]SRIF-28 from human cloned sst5 receptor expressed in CHOK1 cells; assay type: cell-based, CHO-K1
Chain of Somatostatin receptor type 5 (P35346 whole entry): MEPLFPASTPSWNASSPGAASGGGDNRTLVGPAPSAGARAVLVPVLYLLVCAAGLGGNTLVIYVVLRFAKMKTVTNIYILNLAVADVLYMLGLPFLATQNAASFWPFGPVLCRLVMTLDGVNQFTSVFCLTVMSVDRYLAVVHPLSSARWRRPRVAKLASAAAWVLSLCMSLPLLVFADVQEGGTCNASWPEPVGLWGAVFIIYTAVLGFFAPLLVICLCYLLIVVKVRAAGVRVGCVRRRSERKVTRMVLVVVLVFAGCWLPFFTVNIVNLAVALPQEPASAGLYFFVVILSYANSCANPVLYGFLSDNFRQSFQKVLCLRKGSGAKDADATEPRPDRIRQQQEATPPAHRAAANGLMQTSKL

[3] = biological target: Somatostatin receptor type 4 (Homo sapiens, UniProt P31391); assay: Displacement of [125I]-[Leu8, DTrp22, Tyr25]SRIF-28 from human cloned sst4 receptor expressed in CCL39 cells; assay type: cell-based
Chain of Somatostatin receptor type 4 (P31391 whole entry): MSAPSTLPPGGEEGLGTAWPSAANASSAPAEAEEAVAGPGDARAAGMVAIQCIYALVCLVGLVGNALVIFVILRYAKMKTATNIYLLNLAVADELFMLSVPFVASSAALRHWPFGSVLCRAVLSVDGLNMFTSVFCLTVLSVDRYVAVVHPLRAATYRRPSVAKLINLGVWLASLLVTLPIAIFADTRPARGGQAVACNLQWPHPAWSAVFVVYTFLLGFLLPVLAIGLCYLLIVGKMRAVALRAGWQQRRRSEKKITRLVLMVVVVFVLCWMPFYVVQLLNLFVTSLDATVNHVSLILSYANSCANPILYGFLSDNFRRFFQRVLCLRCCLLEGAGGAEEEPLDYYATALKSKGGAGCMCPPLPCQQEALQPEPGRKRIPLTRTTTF

[4] = biological target: Somatostatin receptor type 3 (Homo sapiens, UniProt P32745); assay: Displacement of [125I]-[Leu8, DTrp22, Tyr25]SRIF-28 from human cloned sst3 receptor expressed in CCL39 cells; assay type: cell-based
Chain of Somatostatin receptor type 3 (P32745 whole entry): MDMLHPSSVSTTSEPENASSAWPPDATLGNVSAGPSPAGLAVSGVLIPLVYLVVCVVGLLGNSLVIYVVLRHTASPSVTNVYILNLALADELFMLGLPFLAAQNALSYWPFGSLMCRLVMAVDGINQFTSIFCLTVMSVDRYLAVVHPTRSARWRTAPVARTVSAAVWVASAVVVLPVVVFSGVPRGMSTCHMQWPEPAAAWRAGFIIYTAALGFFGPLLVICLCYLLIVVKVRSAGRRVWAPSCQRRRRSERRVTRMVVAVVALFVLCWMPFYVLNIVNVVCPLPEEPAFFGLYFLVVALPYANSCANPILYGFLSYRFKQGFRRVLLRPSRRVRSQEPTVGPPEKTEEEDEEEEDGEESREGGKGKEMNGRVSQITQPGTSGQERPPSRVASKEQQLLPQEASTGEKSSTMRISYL

[5] = biological target: Somatostatin receptor type 1 (Homo sapiens, UniProt P30872); assay: Displacement of [125I]-[Leu8, DTrp22, Tyr25]SRIF28 from human cloned sst1 receptor
Chain of Somatostatin receptor type 1 (P30872 whole entry): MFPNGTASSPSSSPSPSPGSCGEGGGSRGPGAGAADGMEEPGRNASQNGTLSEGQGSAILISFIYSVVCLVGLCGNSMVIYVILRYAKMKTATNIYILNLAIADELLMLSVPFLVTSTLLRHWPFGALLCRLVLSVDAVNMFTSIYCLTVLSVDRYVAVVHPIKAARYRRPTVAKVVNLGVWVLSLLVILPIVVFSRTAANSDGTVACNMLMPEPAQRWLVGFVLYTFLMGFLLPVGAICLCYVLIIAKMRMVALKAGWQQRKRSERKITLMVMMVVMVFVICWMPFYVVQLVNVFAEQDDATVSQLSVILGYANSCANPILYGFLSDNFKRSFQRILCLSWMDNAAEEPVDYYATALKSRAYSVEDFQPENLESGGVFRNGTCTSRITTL

Chain of Somatostatin receptor type 2 (P30874 whole entry): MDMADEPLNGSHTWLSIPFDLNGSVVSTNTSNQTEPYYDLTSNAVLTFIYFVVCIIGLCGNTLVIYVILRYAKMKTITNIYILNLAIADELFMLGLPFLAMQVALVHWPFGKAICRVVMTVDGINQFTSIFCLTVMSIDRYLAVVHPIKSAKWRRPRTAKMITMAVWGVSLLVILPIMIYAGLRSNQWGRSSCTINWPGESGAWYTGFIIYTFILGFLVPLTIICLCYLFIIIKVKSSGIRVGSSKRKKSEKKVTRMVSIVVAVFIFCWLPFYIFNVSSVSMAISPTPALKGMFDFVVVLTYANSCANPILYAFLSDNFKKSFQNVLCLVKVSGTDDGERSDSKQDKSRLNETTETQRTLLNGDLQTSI

Row | Compound | IC50 [1] | IC50 [2] | IC50 [3] | IC50 [4] | IC50 [5]
1 | C[C@@H](O)[C@@H]1NC(=O)[C@H](CCCCN)NC(=O)[C@@H](Cc2c[nH]c3ccccc23)NC(=O)[C@H](Cc2ccccc2)NC(=O)[C@H](Cc2ccccc2)NC(=O)[C@H](N)CSSC[C@H](C(=O)O)NC(=O)[C@H](Cc2ccccc2)NC1=O | 11 nM | 8.7 nM | 2.6 nM | 6.3 nM | > 1000 nM
2 | C[C@@H](O)[C@@H]1NC(=O)[C@H](CCCCN)NC(=O)[C@@H](Cc2c[nH]c3ccccc23)NC(=O)[C@H](Cc2ccccc2)NC(=O)[C@H](Cc2ccccc2)NC(=O)[C@@H](N)CSSC[C@H](C(=O)O)NC(=O)[C@H](Cc2ccccc2)NC1=O | 18 nM | 27 nM | 8.2 nM | 18.5 nM | > 1000 nM
3 | CC(=O)N[C@@H]1CCSSC[C@@H](C(=O)O)NC(=O)[C@H](Cc2ccccc2)NC(=O)[C@H]([C@@H](C)O)NC(=O)[C@H](CCCCN)NC(=O)[C@@H](Cc2c[nH]c3ccccc23)NC(=O)[C@H](Cc2ccccc2)NC(=O)[C@H](Cc2ccccc2)NC1=O | 40 nM | 90 nM | 1.4 nM | 69 nM | 218 nM
4 | CC(=O)N[C@H]1CSS[C@H](C(=O)O)NC(=O)[C@H](Cc2ccccc2)NC(=O)[C@H]([C@@H](C)O)NC(=O)[C@H](CCCCN)NC(=O)[C@@H](Cc2c[nH]c3ccccc23)NC(=O)[C@H](Cc2ccccc2)NC(=O)[C@H](Cc2ccccc2)NC1=O | 41 nM | 50 nM | 2 nM | 20 nM | 358 nM
5 | CC(=O)N[C@H]1CSSC[C@@H](C(=O)O)NC(=O)[C@H](Cc2ccccc2)NC(=O)[C@H]([C@@H](C)O)NC(=O)[C@H](CCCCN)NC(=O)[C@@H](Cc2c[nH]c3ccccc23)NC(=O)[C@H](Cc2ccccc2)NC(=O)[C@H](Cc2ccccc2)NC1=O | 49 nM | 26 nM | 1.3 nM | 7.1 nM | 22 nM
6 | CC(=O)N[C@H]1SS[C@H](C(=O)O)NC(=O)[C@H](Cc2ccccc2)NC(=O)[C@H]([C@@H](C)O)NC(=O)[C@H](CCCCN)NC(=O)[C@@H](Cc2c[nH]c3ccccc23)NC(=O)[C@H](Cc2ccccc2)NC(=O)[C@H](Cc2ccccc2)NC1=O | 109 nM | 107 nM | 2.7 nM | 45 nM | > 1000 nM
7 | CC(=O)N[C@H]1SSC[C@@H](C(=O)O)NC(=O)[C@H](Cc2ccccc2)NC(=O)[C@H]([C@@H](C)O)NC(=O)[C@H](CCCCN)NC(=O)[C@@H](Cc2c[nH]c3ccccc23)NC(=O)[C@H](Cc2ccccc2)NC(=O)[C@H](Cc2ccccc2)NC1=O | 42 nM | 46 nM | 3.1 nM | 14 nM | 416 nM
8 | C[C@@H](O)[C@@H]1NC(=O)[C@H](CCCCN)NC(=O)[C@@H](Cc2c[nH]c3ccccc23)NC(=O)[C@H](Cc2ccccc2)NC(=O)[C@H](Cc2ccccc2)NC(=O)C(N)CSSC[C@@H](C(=O)O)NC(=O)[C@H](Cc2ccccc2)NC1=O (single isomer, unassigned) | 14.5 nM | 9.5 nM | 1 nM | 4.5 nM | 14 nM

More lines, in order of falling IC50 [1], values ahead:

Row | IC50 [1] | IC50 [2] | IC50 [3] | IC50 [4] | IC50 [5] | Compound
9 | 34 nM | 57 nM | 1.6 nM | 19 nM | 302 nM | CC(=O)N[C@@H]1SS[C@H](C(=O)O)NC(=O)[C@H](Cc2ccccc2)NC(=O)[C@H]([C@@H](C)O)NC(=O)[C@H](CCCCN)NC(=O)[C@@H](Cc2c[nH]c3ccccc23)NC(=O)[C@H](Cc2ccccc2)NC(=O)[C@H](Cc2ccccc2)NC1=O
10 | 33 nM | 9 nM | 1.9 nM | 6 nM | 79 nM | CC(=O)N[C@@H]1SSC[C@@H](C(=O)O)NC(=O)[C@H](Cc2ccccc2)NC(=O)[C@H]([C@@H](C)O)NC(=O)[C@H](CCCCN)NC(=O)[C@@H](Cc2c[nH]c3ccccc23)NC(=O)[C@H](Cc2ccccc2)NC(=O)[C@H](Cc2ccccc2)NC1=O
11 | 18.5 nM | 51 nM | 1.5 nM | 30 nM | 540 nM | CC(=O)N[C@@H]1CSS[C@H](C(=O)O)NC(=O)[C@H](Cc2ccccc2)NC(=O)[C@H]([C@@H](C)O)NC(=O)[C@H](CCCCN)NC(=O)[C@@H](Cc2c[nH]c3ccccc23)NC(=O)[C@H](Cc2ccccc2)NC(=O)[C@H](Cc2ccccc2)NC1=O
12 | 13 nM | 50 nM | 5 nM | 28 nM | > 1000 nM | CC(=O)N[C@H]1SSC[C@H](C(=O)O)NC(=O)[C@H](Cc2ccccc2)NC(=O)[C@H]([C@@H](C)O)NC(=O)[C@H](CCCCN)NC(=O)[C@@H](Cc2c[nH]c3ccccc23)NC(=O)[C@H](Cc2ccccc2)NC(=O)[C@H](Cc2ccccc2)NC1=O
13 | 13 nM | 21 nM | 2.2 nM | 31 nM | > 1000 nM | CC(=O)N[C@H]1SS[C@@H](C(=O)O)NC(=O)[C@H](Cc2ccccc2)NC(=O)[C@H]([C@@H](C)O)NC(=O)[C@H](CCCCN)NC(=O)[C@@H](Cc2c[nH]c3ccccc23)NC(=O)[C@H](Cc2ccccc2)NC(=O)[C@H](Cc2ccccc2)NC1=O
14 | 11 nM | 50 nM | 4.4 nM | 69 nM | > 1000 nM | CC(=O)N[C@@H]1SSC[C@H](C(=O)O)NC(=O)[C@H](Cc2ccccc2)NC(=O)[C@H]([C@@H](C)O)NC(=O)[C@H](CCCCN)NC(=O)[C@@H](Cc2c[nH]c3ccccc23)NC(=O)[C@H](Cc2ccccc2)NC(=O)[C@H](Cc2ccccc2)NC1=O
15 | 9 nM | 7.4 nM | 3.25 nM | 15 nM | > 1000 nM | CC(=O)N[C@@H]1CSSC[C@H](C(=O)O)NC(=O)[C@H](Cc2ccccc2)NC(=O)[C@H]([C@@H](C)O)NC(=O)[C@H](CCCCN)NC(=O)[C@@H](Cc2c[nH]c3ccccc23)NC(=O)[C@H](Cc2ccccc2)NC(=O)[C@H](Cc2ccccc2)NC1=O
16 | 8 nM | 9.1 nM | 0.7 nM | 19 nM | 16 nM | CC(=O)N[C@@H]1CSSC[C@@H](C(=O)O)NC(=O)[C@H](Cc2ccccc2)NC(=O)[C@H]([C@@H](C)O)NC(=O)[C@H](CCCCN)NC(=O)[C@@H](Cc2c[nH]c3ccccc23)NC(=O)[C@H](Cc2ccccc2)NC(=O)[C@H](Cc2ccccc2)NC1=O
17 | 6.5 nM | 28 nM | 0.9 nM | 38 nM | 96 nM | CC(=O)N[C@H]1CCSSC[C@@H](C(=O)O)NC(=O)[C@H](Cc2ccccc2)NC(=O)[C@H]([C@@H](C)O)NC(=O)[C@H](CCCCN)NC(=O)[C@@H](Cc2c[nH]c3ccccc23)NC(=O)[C@H](Cc2ccccc2)NC(=O)[C@H](Cc2ccccc2)NC1=O
18 | 5.4 nM | 82 nM | 6 nM | 53 nM | > 1000 nM | CC(=O)N[C@H]1CSS[C@@H](C(=O)O)NC(=O)[C@H](Cc2ccccc2)NC(=O)[C@H]([C@@H](C)O)NC(=O)[C@H](CCCCN)NC(=O)[C@@H](Cc2c[nH]c3ccccc23)NC(=O)[C@H](Cc2ccccc2)NC(=O)[C@H](Cc2ccccc2)NC1=O
19 | 4.9 nM | 11 nM | 4.5 nM | 12 nM | > 1000 nM | CC(=O)N[C@H]1CSSC[C@H](C(=O)O)NC(=O)[C@H](Cc2ccccc2)NC(=O)[C@H]([C@@H](C)O)NC(=O)[C@H](CCCCN)NC(=O)[C@@H](Cc2c[nH]c3ccccc23)NC(=O)[C@H](Cc2ccccc2)NC(=O)[C@H](Cc2ccccc2)NC1=O
20 | 4.8 nM | 17 nM | 3 nM | 36 nM | > 1000 nM | CC(=O)N[C@@H]1CSS[C@@H](C(=O)O)NC(=O)[C@H](Cc2ccccc2)NC(=O)[C@H]([C@@H](C)O)NC(=O)[C@H](CCCCN)NC(=O)[C@@H](Cc2c[nH]c3ccccc23)NC(=O)[C@H](Cc2ccccc2)NC(=O)[C@H](Cc2ccccc2)NC1=O
21 | 3.9 nM | 60 nM | 2.6 nM | 50 nM | > 1000 nM | CC(=O)N[C@@H]1SS[C@@H](C(=O)O)NC(=O)[C@H](Cc2ccccc2)NC(=O)[C@H]([C@@H](C)O)NC(=O)[C@H](CCCCN)NC(=O)[C@@H](Cc2c[nH]c3ccccc23)NC(=O)[C@H](Cc2ccccc2)NC(=O)[C@H](Cc2ccccc2)NC1=O
